Reference: patent US11806359B2 (priority 2020, dated 2023)

Experiments:
SARS-CoV-2 [1] = assay: SARS-CoV-2 genome equivalents in supernatant by qRT-PCR (Example 39); type: cell-based; conditions: 24 hours-post infection, four highest doses
Text: The Vero 81 cells described above were subjected to genome analysis determine whether the inhibition of SARS-CoV-2 was at the level of total or infectious particle production. RNA was extracted from the cell culture supernatants of the prophylactic study, and genomic equivalents were quantified via qRT-PCR (Example 39). The prophylactic effect of oleandrin, initially observed via infectious assay, was confirmed at the level of genome equivalents. […]
To quantify genome copies for the samples, 200 μl of sample was extracted with a 5:1 volume ratio of TRIzol LS (Ambion, Carlsbad, Calif.), utilizing standard manufacturers protocols and resuspending in 11 μl water. Extracted RNA were tested for SARS-CoV-2 by qRT-PCR following a previously published assay (26). Briefly, the N gene was amplified using the following primers and probe: forward primer [5′-[…]-3′] (SEQ ID NO. 1); reverse primer [5′-[…]-3′] (SEQ ID NO. 2); and probe [5′-FAM-[…]-TAMRA-3′; (SEQ ID NO. 3)]. […]

Vero-E6 cells = conditions: African green monkey
SARS-CoV-2 [2] = assay: SARS-CoV-2 viral titer and infectivity of progeny virions in Vero cells (Example 28); type: cell-based; conditions: for reduction in virus load: oleandrin pretreatment
Procedure: Further proof of the efficacy of oleandrin (oleandrin-containing composition) against coronavirus, e.g. SARS-CoV-2 (COVID-19), was obtained through in vitro evaluation according to Example 28, wherein Vero cells were pretreated with oleandrin and then infected with SARS-CoV-2. Following infection of the cells, the extracellular virus and oleandrin was washed away, and the infected cells were then treated with oleandrin (FIG. 23A: 1 microg/mL in 0.1% v/v aqueous DMSO; FIG. 23C: 0.1 microg/mL in 0.01% v/v aqueous DMSO) or just aqueous DMSO as control vehicle (FIG. 23B: 0.1% v/v aqueous DMSO; FIG. 23D: 0.01% v/v aqueous DMSO). […] The results further indicate that oleandrin inhibits infectivity of progeny virus by a) about 1 log10 without continuous drug treatment; and b) about >3 log10 with continuous drug treatments (without toxicity).
A stock solution of oleandrin in methanol (10 mg oleandrin/mL) was prepared. The stock solution was used to prepare incubation media containing DMSO (0.1% or 0.01% v/v in aqueous culture medium RPMI 1640 and oleandrin (20 microg/mL, 10 microg/mL, 1.0 microg/mL, or 0.1 microg/mL). The incubation solutions are as follows.
Uninfected Vero cells (target initial cell count 1×10^6) in culture were incubated in each of the indicated incubation media in vials for 30 min at 37° C. A viral inoculate of SARS-CoV-2 was then added to each vial to achieve a target initial viral titer (about PFU/mL 1×10^4). The target MOI (multiplicity of infection) of about 0.1. The solutions were incubated for an additional 2 h at 37° C. to achieve infection of the Vero cells. The infected Vero cells were then washed with control vehicle to remove extracellular virus and oleandrin. New aliquots of each incubation medium were added to each respective vial of infected Vero cells. Those receiving oleandrin in the second aliquot were denoted as “+ treatment Post-infection”, and those not receiving oleandrin in the second aliquot were denoted as “− treatment Post-infection” (FIGS. 23A-23D). The viral titer for each vial was determined at about 24 h and about 48 h after infection.
The data acquired included quantity of virus produced, infectivity of progeny virus, and relative safety (nontoxicity) of oleandrin in infected and uninfected cells.

HIV-1 = conditions: Singh et al. 2013; cited from earlier work
[3] = In vitro cellular assay for release of lactate dehydrogenase; type: cell-based
Procedure: Proof of the safety of the oleandrin-containing composition was further provided by in vitro cellular assay for determining the release of lactate dehydrogenase after exposure of said cells to solutions containing different concentrations of oleandrin. It was determined that up to concentrations of 1 microg/mL, there was no additional toxicity over control vehicle.

CO[C@H]1C[C@H](O[C@H]2CC[C@@]3(C)[C@H](CC[C@@H]4[C@@H]3CC[C@]3(C)[C@@H](C5=CC(=O)OC5)[C@@H](OC(C)=O)C[C@]43O)C2)O[C@@H](C)[C@@H]1O [oleandrin]
SARS-CoV-2 genomes in the supernatant (SARS-CoV-2 [1]): significantly decreased
concentration at which cellular toxicity appeared (Vero-E6 cells): ≥ 1000 ng/mL
Vero cells remaining viable (Vero-E6 cells; 24 h): about 80%
reduction of initial viral infection (SARS-CoV-2 [2]; just 30 min preincubation of Vero cells): only slightly effective
reduction in virus load (SARS-CoV-2 [2]; 24-h time): 1368 fold
reduction in virus load (SARS-CoV-2 [2]; 48-h time point): 369 fold
inhibition of infectivity of progeny virus (SARS-CoV-2 [2]; with continuous drug treatments (without toxicity)): > 3 log10
inhibition of infectivity of progeny virus (SARS-CoV-2 [2]; without continuous drug treatment): about 1 log10
HIV-1 viral infectivity in vitro (HIV-1): inhibit viral infectivity in vitro
concentration up to which no additional toxicity over control vehicle [3]: ≤ 1000 ng/mL
